Publication PMC11233931, “Remodeling tumor‐associated macrophage for anti‐cancer effects by rational design of irreversible inhibition of mitogen‐activated protein kinase‐activated protein kinase 2” (MedComm, 2024)
Like-named read-outs stand apart in the source and are kept apart here.

What was measured:
Assay in all cases: Eurofins kinase selectivity profile against 380 other human recombinant kinases (Table S2)
Assay type in all cases: biochemical
[1] = target: T1, 380 human recombinant protein kinases (Homo sapiens, UniProt Q9UIK4); conditions: DAPK2(h), read-out: Inhibition rate
T1 construct: purchased Eurofins (Celle Lévescault)
T1 sequence (Q9UIK4 whole entry): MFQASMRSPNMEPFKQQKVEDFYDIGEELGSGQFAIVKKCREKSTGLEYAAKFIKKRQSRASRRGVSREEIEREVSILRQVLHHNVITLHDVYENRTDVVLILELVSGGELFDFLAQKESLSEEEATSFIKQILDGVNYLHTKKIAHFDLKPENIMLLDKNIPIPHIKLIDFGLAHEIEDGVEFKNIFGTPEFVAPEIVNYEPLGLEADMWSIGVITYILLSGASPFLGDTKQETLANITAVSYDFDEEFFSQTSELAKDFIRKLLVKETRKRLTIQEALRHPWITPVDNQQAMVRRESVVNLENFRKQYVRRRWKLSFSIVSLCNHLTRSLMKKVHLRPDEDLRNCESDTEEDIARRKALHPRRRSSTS
Procedure: (§1) Subsequently, to ascertain whether the high potency of compound 11 was specific for MK2, an additional 380 human recombinant protein kinases were screened.
(§2) To assess the impact of various compounds on MK2 kinase activity, we utilized the ADP‐Glo Assay Kit (Promega) following the manufacturer's instructions. Luminescence measurements were taken using a SpectraMax Paradigm reader. The inhibition percentage was calculated using the following formula: ((specific signalDMSO control − specific signal inhibitor)/(specific signalDMSO control)) × 100%. The IC50 values were determined employing dose–response curve fitting via Prism (Graph Pad). Additionally, Eurofins company (Celle Lévescault) conducted the analysis on compound 11’s inhibitory activity against 380 other human recombinant kinases at various concentrations.

[2] = target: T2, 380 human recombinant protein kinases (Homo sapiens, UniProt Q5TCX8); conditions: MLK4(h), read-out: Inhibition rate
T2 construct: purchased Eurofins (Celle Lévescault)
Procedure: as §1, §2

[3] = target: T3, 380 human recombinant protein kinases (Homo sapiens, UniProt Q9HBH9); conditions: Mnk2(h), read-out: Inhibition rate
T3 construct: purchased Eurofins (Celle Lévescault)
T3 sequence (Q9HBH9 whole entry): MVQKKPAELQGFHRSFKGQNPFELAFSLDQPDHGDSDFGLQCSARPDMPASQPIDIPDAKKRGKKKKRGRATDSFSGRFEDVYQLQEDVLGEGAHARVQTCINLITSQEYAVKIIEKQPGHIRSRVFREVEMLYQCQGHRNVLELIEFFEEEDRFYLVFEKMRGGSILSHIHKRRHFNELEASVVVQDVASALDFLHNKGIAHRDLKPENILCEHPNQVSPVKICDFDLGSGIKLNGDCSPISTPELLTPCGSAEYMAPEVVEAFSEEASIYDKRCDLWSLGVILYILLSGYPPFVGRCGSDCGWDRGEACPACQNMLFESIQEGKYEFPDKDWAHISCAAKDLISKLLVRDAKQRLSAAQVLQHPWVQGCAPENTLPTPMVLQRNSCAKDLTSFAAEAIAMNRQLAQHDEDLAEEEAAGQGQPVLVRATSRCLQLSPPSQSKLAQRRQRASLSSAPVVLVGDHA
Procedure: as §1, §2

[4] = target: T4, 380 human recombinant protein kinases (Homo sapiens, UniProt P04626); conditions: ErbB2(h), read-out: Inhibition rate
T4 construct: purchased Eurofins (Celle Lévescault)
T4 sequence (P04626 23-1255): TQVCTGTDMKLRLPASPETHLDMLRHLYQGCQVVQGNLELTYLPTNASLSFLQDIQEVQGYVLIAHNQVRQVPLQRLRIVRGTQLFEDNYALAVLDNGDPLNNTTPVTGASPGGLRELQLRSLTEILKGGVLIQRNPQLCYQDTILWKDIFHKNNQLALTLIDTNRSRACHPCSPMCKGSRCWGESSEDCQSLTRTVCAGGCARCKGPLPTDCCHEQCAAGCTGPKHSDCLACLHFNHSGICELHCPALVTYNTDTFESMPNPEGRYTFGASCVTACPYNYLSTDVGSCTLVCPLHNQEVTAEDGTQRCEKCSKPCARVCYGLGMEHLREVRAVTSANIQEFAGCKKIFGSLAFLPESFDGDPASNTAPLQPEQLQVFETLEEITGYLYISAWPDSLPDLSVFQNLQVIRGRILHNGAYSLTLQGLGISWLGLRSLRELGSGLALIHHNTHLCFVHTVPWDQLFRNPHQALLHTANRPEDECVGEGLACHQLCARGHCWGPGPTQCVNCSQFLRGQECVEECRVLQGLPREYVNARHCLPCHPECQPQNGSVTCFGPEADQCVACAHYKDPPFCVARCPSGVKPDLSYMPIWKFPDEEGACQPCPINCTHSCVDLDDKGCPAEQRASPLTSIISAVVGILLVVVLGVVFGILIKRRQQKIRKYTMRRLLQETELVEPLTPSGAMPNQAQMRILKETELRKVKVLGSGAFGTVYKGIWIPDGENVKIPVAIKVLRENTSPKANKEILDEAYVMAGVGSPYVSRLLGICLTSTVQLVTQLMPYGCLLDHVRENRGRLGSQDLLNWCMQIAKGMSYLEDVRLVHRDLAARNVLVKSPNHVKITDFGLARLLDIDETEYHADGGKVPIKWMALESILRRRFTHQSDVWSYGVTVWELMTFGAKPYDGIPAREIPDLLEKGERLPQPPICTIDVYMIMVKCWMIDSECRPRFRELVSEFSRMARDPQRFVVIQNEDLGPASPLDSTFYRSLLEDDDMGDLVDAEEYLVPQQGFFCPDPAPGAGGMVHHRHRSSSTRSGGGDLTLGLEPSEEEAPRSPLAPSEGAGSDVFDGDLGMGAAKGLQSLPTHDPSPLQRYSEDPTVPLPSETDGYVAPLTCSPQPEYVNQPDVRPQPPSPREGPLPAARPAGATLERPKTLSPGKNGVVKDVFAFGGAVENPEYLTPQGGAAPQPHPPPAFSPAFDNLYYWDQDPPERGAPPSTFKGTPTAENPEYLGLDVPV
Procedure: as §1, §2

[5] = target: T5, 380 human recombinant protein kinases (Homo sapiens, UniProt Q9Y463); conditions: DYRK1B(h), read-out: Inhibition rate
T5 construct: purchased Eurofins (Celle Lévescault)
T5 sequence (Q9Y463 whole entry): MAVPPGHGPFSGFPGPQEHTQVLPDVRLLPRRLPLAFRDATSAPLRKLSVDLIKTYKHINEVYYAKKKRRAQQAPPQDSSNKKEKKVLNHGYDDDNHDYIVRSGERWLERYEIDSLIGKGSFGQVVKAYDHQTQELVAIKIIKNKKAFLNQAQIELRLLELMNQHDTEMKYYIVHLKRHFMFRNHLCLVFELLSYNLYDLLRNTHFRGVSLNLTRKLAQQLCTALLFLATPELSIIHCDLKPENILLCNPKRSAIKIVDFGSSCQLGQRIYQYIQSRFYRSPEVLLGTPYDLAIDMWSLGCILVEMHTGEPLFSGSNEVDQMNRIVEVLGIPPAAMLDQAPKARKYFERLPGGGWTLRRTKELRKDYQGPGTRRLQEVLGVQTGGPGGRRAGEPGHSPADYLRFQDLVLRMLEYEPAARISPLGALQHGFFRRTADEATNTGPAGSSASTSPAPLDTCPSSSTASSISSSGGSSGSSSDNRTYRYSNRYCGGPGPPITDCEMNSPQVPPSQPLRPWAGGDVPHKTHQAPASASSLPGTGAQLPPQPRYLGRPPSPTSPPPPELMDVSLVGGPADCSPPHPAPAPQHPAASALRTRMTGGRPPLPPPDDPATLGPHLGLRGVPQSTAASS
Procedure: as §1, §2

[6] = target: T6, 380 human recombinant protein kinases (Homo sapiens, UniProt P42336); conditions: read-out: Inhibition rate (%); for inhibition at 0.01 µM: 10 nM; for inhibition at 0.1 µM: 100 nM; for inhibition at 1 µM: 1000 nM
T6 construct: purchased Eurofins (Celle Lévescault)
T6 sequence (P42336 whole entry): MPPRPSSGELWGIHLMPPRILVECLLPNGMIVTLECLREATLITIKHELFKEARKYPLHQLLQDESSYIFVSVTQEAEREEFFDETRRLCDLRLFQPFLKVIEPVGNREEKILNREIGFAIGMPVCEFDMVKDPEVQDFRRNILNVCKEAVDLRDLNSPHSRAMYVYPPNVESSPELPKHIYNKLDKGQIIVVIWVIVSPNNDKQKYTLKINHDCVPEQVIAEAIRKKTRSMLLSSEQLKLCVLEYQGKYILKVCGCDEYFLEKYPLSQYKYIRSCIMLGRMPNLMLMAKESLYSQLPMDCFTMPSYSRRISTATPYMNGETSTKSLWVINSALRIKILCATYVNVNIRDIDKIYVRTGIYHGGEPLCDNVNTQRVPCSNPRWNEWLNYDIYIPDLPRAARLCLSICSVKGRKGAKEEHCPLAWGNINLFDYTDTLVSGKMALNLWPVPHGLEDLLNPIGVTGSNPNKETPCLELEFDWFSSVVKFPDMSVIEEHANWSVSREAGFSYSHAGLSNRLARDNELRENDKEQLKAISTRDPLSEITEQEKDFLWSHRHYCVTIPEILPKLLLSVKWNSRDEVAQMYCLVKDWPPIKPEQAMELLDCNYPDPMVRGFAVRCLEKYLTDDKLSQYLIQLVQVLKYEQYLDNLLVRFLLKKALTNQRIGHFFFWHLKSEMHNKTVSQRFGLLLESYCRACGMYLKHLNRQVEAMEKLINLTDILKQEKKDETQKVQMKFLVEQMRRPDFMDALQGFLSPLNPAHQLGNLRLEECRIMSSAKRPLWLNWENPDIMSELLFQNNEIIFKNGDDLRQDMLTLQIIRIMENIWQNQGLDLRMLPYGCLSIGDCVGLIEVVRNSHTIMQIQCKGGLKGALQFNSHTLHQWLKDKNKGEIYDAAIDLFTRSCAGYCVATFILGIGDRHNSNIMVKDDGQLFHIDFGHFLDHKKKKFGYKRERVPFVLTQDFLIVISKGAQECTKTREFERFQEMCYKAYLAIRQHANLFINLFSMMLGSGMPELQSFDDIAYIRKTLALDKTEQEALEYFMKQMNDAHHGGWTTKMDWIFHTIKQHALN
Procedure: as §1, §2

[7] = target: T7, 380 human recombinant protein kinases (Homo sapiens, UniProt Q00534); conditions: CDK6/cyclinD3(h), read-out: Inhibition rate
T7 construct: purchased Eurofins (Celle Lévescault)
Procedure: as §1, §2

[8] = target: T8, 380 human recombinant protein kinases (Homo sapiens, UniProt P21802); conditions: FGFR2(h), read-out: Inhibition rate
T8 construct: purchased Eurofins (Celle Lévescault)
Procedure: as §1, §2

[9] = target: T9, 380 human recombinant protein kinases (Homo sapiens, UniProt P04629); conditions: TrkA(h), read-out: Inhibition rate (%)
T9 construct: purchased Eurofins (Celle Lévescault)
T9 sequence (P04629 33-796): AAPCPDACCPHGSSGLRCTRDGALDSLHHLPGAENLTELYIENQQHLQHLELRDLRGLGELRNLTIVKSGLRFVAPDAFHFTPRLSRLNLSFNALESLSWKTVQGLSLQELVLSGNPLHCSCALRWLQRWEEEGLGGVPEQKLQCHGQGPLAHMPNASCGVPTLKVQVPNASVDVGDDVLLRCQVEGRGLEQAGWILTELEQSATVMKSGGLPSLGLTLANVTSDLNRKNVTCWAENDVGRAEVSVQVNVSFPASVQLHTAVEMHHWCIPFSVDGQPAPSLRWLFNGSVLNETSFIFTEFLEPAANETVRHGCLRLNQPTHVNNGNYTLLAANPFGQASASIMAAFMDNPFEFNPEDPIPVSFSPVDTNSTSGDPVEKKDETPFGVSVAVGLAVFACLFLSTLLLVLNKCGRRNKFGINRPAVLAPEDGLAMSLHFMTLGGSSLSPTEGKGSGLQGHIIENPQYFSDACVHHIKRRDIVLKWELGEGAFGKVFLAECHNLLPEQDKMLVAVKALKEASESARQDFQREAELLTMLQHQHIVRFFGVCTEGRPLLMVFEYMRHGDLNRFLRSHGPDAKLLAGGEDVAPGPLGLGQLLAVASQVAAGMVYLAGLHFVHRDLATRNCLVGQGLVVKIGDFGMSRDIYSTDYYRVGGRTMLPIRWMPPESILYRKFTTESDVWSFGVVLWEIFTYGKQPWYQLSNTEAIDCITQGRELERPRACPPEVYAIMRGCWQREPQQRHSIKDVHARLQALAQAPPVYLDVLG
Procedure: as §1, §2

[10] = target: T10, 380 human recombinant protein kinases (Homo sapiens, UniProt P51813); conditions: Bmx(h), read-out: Inhibition rate
T10 construct: purchased Eurofins (Celle Lévescault)
T10 sequence (P51813 1-675): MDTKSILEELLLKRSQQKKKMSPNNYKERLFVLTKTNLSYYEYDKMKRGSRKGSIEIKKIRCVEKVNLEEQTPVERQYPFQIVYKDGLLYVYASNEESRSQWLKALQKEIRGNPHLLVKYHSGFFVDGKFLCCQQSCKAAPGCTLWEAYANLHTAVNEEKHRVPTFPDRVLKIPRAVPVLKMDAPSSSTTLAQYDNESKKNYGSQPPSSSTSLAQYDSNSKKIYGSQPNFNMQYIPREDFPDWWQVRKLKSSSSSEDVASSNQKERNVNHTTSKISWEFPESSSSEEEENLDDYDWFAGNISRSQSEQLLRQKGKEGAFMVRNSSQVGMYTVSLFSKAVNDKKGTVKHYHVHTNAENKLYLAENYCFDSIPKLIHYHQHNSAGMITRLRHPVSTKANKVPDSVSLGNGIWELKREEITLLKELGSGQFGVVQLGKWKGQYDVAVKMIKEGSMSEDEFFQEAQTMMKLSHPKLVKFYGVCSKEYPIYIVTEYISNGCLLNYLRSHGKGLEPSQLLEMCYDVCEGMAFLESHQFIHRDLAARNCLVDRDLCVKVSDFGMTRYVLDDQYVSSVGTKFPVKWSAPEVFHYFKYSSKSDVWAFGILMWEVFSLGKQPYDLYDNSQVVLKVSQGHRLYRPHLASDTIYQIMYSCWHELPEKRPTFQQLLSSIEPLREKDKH
Procedure: as §1, §2

[11] = target: T11, 380 human recombinant protein kinases (Homo sapiens, UniProt Q16512); conditions: PRK1(h), read-out: Inhibition rate
T11 construct: purchased Eurofins (Celle Lévescault)
Procedure: as §1, §2

[12] = target: T12, 380 human recombinant protein kinases (Homo sapiens, UniProt P45983); conditions: JNK1α1(h), read-out: Inhibition rate
T12 construct: purchased Eurofins (Celle Lévescault)
T12 sequence (P45983 whole entry): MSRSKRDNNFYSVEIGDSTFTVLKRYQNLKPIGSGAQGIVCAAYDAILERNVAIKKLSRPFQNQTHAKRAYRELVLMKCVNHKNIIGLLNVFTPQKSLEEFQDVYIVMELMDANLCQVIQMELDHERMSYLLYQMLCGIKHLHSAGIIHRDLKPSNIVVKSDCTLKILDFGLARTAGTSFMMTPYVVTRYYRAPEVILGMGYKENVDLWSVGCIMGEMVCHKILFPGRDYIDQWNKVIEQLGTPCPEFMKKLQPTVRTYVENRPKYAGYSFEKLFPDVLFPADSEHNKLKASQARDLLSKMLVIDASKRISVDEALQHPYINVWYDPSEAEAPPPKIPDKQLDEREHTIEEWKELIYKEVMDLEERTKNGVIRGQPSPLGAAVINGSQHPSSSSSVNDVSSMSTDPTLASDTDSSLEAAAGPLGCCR
Procedure: as §1, §2

[13] = target: T13, 380 human recombinant protein kinases (Homo sapiens, UniProt Q9Y4K4); conditions: MAP4K5(h), read-out: Inhibition rate
T13 construct: purchased Eurofins (Celle Lévescault)
Procedure: as §1, §2

[14] = target: T14, 380 human recombinant protein kinases (Homo sapiens, UniProt P17612); conditions: PKA(h), read-out: Inhibition rate
T14 construct: purchased Eurofins (Celle Lévescault)
Procedure: as §1, §2

[15] = target: T15, 380 human recombinant protein kinases (Homo sapiens, UniProt P42684); conditions: Arg(h), read-out: Inhibition rate
T15 construct: purchased Eurofins (Celle Lévescault)
Procedure: as §1, §2

[16] = target: T16, 380 human recombinant protein kinases (Homo sapiens, UniProt P07947); conditions: Yes(h), read-out: Inhibition rate (%)
T16 construct: purchased Eurofins (Celle Lévescault)
Procedure: as §1, §2

Q: Which results are given for `C=CC(=O)Nc1cc(-c2cc(-c3cc4c([nH]3)CCNC4=O)ccn2)ccc1OC(F)(F)F` [compound 11]?
A: inhibition at 0.01 µM ([1]; 10 nM): 8%; inhibition at 0.1 µM ([1]; 100 nM): 3%; inhibition at 1 µM ([1]; 1000 nM): 13%; inhibition at 0.01 µM ([2]; 10 nM): -2%; inhibition at 0.1 µM ([2]; 100 nM): -2%; inhibition at 1 µM ([2]; 1000 nM): -3%; inhibition at 0.01 µM ([3]; 10 nM): 4%; inhibition at 0.1 µM ([3]; 100 nM): 13%; inhibition at 1 µM ([3]; 1000 nM): 61%; inhibition at 0.01 µM ([4]; 10 nM): 10%; inhibition at 0.1 µM ([4]; 100 nM): 5%; inhibition at 1 µM ([4]; 1000 nM): 1%; inhibition at 0.01 µM ([5]; 10 nM): 21%; inhibition at 0.1 µM ([5]; 100 nM): 77%; inhibition at 1 µM ([5]; 1000 nM): 97%; inhibition at 0.01 µM ([6]; PI3 Kinase (p110α/p65α)(h)): 3%; inhibition at 0.1 µM ([6]; PI3 Kinase (p110α/p65α)(h)): 0%; inhibition at 1 µM ([6]; PI3 Kinase (p110α/p65α)(h)): 1%; inhibition at 0.01 µM ([6]; PI3 Kinase (p110α/p85α)(h)): -1%; inhibition at 0.1 µM ([6]; PI3 Kinase (p110α/p85α)(h)): 0%; inhibition at 1 µM ([6]; PI3 Kinase (p110α/p85α)(h)): -1%; inhibition at 0.01 µM ([7]; 10 nM): 2%; inhibition at 0.1 µM ([7]; 100 nM): 6%; inhibition at 1 µM ([7]; 1000 nM): -3%; inhibition at 0.01 µM ([8]; 10 nM): -22%; inhibition at 0.1 µM ([8]; 100 nM): -12%; inhibition at 1 µM ([8]; 1000 nM): -2%; inhibition at 0.01 µM ([9]; 10 nM): -6%; inhibition at 0.1 µM ([9]; 100 nM): -1%; inhibition at 1 µM ([9]; 1000 nM): 15%; inhibition at 0.01 µM ([10]; 10 nM): 1%; inhibition at 0.1 µM ([10]; 100 nM): -4%; inhibition at 1 µM ([10]; 1000 nM): -5%; inhibition at 0.01 µM ([11]; 10 nM): -3%; inhibition at 0.1 µM ([11]; 100 nM): 6%; inhibition at 1 µM ([11]; 1000 nM): 4%; inhibition at 0.01 µM ([12]; 10 nM): 2%; inhibition at 0.1 µM ([12]; 100 nM): 4%; inhibition at 1 µM ([12]; 1000 nM): 21%; inhibition at 0.01 µM ([13]; 10 nM): -7%; inhibition at 0.1 µM ([13]; 100 nM): -5%; inhibition at 1 µM ([13]; 1000 nM): 12%; inhibition at 0.01 µM ([14]; 10 nM): -7%; inhibition at 0.1 µM ([14]; 100 nM): -7%; inhibition at 1 µM ([14]; 1000 nM): -6%; inhibition at 0.01 µM ([15]; 10 nM): 1%; inhibition at 0.1 µM ([15]; 100 nM): 2%; inhibition at 1 µM ([15]; 1000 nM): 6%; inhibition at 0.01 µM ([16]; 10 nM): -2%; inhibition at 0.1 µM ([16]; 100 nM): 0%; inhibition at 1 µM ([16]; 1000 nM): -3%
